Where “and” joins values, the source holds several entries; their conditions need not be identical. Identical values can stand only once.
What was measured:
[1] = biological target: Metabotropic glutamate receptor 5 (Rattus norvegicus, UniProt P31424)
[2] = biological target: Metabotropic glutamate receptor 2 (Homo sapiens, UniProt Q14416)
[3] = biological target: Metabotropic glutamate receptor 1 (Rattus norvegicus, UniProt P23385)
Sequence of Metabotropic glutamate receptor 1 (P23385 whole entry): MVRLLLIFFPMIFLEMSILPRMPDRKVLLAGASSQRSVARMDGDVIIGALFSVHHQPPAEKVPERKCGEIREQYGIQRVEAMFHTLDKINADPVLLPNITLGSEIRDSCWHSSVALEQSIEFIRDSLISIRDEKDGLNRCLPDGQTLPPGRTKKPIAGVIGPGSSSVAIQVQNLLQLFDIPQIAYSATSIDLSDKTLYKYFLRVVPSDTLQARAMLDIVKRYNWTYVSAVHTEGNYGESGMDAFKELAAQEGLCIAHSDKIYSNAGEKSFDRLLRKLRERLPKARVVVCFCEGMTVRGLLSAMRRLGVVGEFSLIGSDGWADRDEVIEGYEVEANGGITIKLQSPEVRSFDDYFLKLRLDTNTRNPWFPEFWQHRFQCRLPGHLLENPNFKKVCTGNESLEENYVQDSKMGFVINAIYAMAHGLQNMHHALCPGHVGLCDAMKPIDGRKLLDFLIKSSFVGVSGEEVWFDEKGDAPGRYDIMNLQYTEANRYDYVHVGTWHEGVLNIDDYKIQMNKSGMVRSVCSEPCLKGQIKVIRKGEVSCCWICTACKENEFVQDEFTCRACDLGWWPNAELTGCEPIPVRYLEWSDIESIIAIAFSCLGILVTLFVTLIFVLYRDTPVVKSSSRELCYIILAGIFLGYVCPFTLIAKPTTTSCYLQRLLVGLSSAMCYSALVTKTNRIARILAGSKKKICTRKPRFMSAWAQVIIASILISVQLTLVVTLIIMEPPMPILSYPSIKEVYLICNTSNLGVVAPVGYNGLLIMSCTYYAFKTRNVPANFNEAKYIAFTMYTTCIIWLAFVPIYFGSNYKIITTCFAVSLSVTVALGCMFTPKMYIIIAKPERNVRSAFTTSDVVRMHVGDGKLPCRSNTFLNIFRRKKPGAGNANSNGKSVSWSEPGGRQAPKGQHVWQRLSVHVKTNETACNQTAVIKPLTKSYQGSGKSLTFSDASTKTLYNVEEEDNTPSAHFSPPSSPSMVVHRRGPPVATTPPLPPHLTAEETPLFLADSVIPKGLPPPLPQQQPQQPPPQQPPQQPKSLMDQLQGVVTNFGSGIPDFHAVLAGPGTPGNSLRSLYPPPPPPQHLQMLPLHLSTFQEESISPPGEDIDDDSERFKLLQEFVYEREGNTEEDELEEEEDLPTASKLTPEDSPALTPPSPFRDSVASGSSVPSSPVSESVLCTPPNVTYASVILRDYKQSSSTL

Sequence of Metabotropic glutamate receptor 5 (P31424 whole entry): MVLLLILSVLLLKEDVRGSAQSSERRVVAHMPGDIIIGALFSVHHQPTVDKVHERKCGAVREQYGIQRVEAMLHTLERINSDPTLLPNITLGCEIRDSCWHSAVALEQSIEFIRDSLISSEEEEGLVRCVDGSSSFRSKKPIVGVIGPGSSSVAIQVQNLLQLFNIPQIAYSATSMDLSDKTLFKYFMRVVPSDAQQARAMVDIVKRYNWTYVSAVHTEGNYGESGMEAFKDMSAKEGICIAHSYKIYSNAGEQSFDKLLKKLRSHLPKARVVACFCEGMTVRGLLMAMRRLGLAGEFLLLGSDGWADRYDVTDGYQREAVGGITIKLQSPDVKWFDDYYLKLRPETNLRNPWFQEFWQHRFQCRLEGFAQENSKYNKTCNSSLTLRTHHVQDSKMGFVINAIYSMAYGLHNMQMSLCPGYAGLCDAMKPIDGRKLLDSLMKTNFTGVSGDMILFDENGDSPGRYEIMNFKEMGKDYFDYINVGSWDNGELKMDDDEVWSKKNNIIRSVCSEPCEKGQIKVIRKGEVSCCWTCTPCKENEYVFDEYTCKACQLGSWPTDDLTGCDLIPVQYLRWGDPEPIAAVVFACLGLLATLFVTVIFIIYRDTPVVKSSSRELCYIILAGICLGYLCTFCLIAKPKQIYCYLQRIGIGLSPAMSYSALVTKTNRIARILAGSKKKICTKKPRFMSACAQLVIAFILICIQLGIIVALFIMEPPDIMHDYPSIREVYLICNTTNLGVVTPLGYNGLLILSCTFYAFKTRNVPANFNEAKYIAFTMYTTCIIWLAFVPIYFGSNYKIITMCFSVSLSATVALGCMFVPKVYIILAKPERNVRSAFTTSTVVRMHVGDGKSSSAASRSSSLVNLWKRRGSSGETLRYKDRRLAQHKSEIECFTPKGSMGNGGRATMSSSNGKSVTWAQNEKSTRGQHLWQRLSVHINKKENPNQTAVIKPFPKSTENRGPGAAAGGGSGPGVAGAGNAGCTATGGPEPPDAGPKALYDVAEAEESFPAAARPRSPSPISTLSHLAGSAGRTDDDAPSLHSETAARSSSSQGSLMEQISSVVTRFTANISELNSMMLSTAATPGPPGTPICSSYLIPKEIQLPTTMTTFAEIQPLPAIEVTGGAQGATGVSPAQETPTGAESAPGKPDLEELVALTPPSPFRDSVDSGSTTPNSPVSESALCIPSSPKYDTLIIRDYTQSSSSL
Sequence of Metabotropic glutamate receptor 2 (Q14416 whole entry): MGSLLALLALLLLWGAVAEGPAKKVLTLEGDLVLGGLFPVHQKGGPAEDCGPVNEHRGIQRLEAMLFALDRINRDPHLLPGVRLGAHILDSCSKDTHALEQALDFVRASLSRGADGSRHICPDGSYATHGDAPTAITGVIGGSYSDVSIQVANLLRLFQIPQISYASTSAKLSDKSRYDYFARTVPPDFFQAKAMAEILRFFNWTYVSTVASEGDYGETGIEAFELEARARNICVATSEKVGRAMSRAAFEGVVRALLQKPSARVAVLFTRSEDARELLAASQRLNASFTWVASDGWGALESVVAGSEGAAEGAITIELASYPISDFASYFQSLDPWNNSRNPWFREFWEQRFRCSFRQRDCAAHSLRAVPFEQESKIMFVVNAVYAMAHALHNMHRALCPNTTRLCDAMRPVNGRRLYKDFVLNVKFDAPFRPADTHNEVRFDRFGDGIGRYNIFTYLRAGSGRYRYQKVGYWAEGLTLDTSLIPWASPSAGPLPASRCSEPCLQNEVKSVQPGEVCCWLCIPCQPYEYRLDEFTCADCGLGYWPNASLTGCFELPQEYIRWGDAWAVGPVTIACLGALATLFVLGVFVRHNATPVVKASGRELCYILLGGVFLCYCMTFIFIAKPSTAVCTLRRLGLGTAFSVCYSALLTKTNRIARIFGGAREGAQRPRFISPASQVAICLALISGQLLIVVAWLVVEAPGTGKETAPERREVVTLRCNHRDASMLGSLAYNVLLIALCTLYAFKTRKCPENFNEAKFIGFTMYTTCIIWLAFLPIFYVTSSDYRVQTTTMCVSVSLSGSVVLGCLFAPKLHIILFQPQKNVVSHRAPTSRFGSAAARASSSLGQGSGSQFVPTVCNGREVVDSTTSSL

- Ki [1]: 240 nM and 500 nM
- Ki [2]: 140 nM
- Ki [3]: > 10000 nM
Structure (SMILES): C=C1C[C@@H]2COC(=O)[C@]2(Cc2ccc3ccccc3c2)C1

Reference: BindingDB's records for PubMed 11306677 (Upr 9023, 2001)
